Like-named read-outs stand apart in the source and are kept apart here.
Experiments:
Format in all cases: cell-based
A431 (EGFR_WT) = target: T1, A431 (EGFR_WT) (Homo sapiens, UniProt P00533); assay: EGFR degradation assay (western blot), A431 cells
T1 construct: endogenous in cells; host or cells: A431, NCI-H2073, NCI-H292
Outline: (§1)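 Cells seeded overnight, then exposed to compounds for 24 h; lysates run on western blot, EGFR probed with tubulin loading control and fluorescent secondary detection. DC50 = concentration giving 50% EGFR degradation.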

[1] = target: T2, BaF3_ASV (EGFR_A776inASV) (Homo sapiens, UniProt P00533, DUP767-769); assay: EGFR degradation assay (western blot), BaF3_ASV cells; conditions: for DC50: BaF3_ASV cells
T2 construct: expressed in transfected cells; host or cells: Ba/F3 (engineered)
Outline: as §1

[2] = target: T3, BaF3_SVD (EGFR_D770insSVD) (Homo sapiens, UniProt P00533, INS770SVD); assay: EGFR degradation assay (western blot), BaF3_SVD cells
T3 construct: expressed in transfected cells; host or cells: Ba/F3 (engineered)
Protocol: A431 (EGFR_WT), NCl-H2073 (EGFR_WT), NCl-H292 (EGFR_WT), BaF3_YVAM (Her2_A775insYVAM), BaF3_SVD (EGFR_D770insSVD), BaF3_ASV (EGFR_A776inASV), or BaF3_DTC (EGFR_Exon19del/T790M/C797S) cells were seeded in a 24-well plate at a density of 4×10^5 cells per well for EGFR WT cells and 8× cells per well for EGFR or Her2 mutant cells, and the plates were incubated overnight. The cells were treated with the desired compounds for 24 h. The culture medium was removed, and 100 μL of RIPA buffer (Beyotime, P0013B) containing 1% Protease Inhibitor Cocktail (Bimake, B14001), 1% Phosphatase Inhibitor Cocktail 2 (Sigma, P5726), and 1% Phosphatase Inhibitor Cocktail 3 (Sigma, P0044) were added to lyse the cells. Then, the cell lysates were transferred to 1.5 mL microcentrifuge tubes and centrifuged at 12,000 rpm and 4° C. for 30 min. The supernatants were transferred into new tubes, and the protein concentration was determined using the BCA protein quantification method. All samples were diluted to the same concentration using RIPA buffer, loading buffer was added, samples were denatured, and 15 μg of protein per lane was loaded onto a SurePAGE 4-20% Bis-Tris gel. Samples were separated via electrophoresis in MOPS running buffer at 180 V for 100 min. Then, proteins were transferred onto PVDF membranes using the MiniBlot™ Electrophoretic Transfer Cell Device (Beyotime, E6050). The membrane was blocked using block buffer (LI-COR 927-60001) to prevent non-specific binding. The membrane was incubated with primary antibodies (1:500 dilution, EGFR-CST4405, 1:2000 dilution, Tubulin-ABclonal #AC021) at 4° C. overnight. The membrane was washed three times with 1× TBST buffer for 15 min each. The membrane was incubated with secondary antibodies IRDye 680RD Goat anti-Rabbit IgG Secondary Antibody (1:2000 dilution, LI-COR 926-68071) and IRDye 800CW Goat anti-Mouse IgG Secondary Antibody (1:2000 dilution, LI-COR 926-32210). […] Fluorescence was detected using the Odyssey CLx Imaging System, and the data were analyzed with Empiria Studio Software and GraphPad Prism 9. […]

BaF3_ASV = assay: Cell growth inhibition assay (CellTiter-Glo), BaF3_ASV; conditions: for GI50: BaF3_ASV cells
[3] = BaF3_ASV, comparison with Compound A, in words

T2 sequence (P00533 with tags, fused parts or gaps DUP767-769): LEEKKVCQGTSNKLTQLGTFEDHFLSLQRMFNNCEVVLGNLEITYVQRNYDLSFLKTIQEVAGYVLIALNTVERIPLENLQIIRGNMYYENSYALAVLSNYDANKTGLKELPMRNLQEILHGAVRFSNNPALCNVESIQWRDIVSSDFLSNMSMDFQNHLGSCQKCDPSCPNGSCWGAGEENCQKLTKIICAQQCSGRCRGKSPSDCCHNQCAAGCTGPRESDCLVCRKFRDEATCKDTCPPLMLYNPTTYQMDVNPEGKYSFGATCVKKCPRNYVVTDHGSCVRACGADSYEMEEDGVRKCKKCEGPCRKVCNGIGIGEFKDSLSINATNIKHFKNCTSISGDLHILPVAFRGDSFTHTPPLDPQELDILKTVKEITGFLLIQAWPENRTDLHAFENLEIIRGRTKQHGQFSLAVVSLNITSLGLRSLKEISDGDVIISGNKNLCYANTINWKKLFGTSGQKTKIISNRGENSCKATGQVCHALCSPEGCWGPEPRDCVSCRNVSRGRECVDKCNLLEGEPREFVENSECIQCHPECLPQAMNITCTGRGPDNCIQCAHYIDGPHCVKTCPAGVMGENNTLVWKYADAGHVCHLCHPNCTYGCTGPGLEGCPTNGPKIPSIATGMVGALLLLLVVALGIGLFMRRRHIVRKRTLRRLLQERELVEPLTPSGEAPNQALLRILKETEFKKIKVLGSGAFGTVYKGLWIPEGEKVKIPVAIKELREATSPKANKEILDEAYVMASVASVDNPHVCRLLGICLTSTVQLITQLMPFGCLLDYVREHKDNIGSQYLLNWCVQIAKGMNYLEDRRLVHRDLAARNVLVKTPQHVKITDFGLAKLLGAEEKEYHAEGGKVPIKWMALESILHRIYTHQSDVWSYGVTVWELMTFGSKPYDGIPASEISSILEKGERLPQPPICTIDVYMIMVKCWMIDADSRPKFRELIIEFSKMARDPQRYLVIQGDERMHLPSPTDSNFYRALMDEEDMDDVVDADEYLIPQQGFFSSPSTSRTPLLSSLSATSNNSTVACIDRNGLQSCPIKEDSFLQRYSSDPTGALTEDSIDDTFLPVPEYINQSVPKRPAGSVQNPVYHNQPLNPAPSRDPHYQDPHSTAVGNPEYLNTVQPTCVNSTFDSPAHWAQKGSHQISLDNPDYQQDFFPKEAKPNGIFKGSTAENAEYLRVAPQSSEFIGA
T3 sequence (P00533 with tags, fused parts or gaps INS770SVD): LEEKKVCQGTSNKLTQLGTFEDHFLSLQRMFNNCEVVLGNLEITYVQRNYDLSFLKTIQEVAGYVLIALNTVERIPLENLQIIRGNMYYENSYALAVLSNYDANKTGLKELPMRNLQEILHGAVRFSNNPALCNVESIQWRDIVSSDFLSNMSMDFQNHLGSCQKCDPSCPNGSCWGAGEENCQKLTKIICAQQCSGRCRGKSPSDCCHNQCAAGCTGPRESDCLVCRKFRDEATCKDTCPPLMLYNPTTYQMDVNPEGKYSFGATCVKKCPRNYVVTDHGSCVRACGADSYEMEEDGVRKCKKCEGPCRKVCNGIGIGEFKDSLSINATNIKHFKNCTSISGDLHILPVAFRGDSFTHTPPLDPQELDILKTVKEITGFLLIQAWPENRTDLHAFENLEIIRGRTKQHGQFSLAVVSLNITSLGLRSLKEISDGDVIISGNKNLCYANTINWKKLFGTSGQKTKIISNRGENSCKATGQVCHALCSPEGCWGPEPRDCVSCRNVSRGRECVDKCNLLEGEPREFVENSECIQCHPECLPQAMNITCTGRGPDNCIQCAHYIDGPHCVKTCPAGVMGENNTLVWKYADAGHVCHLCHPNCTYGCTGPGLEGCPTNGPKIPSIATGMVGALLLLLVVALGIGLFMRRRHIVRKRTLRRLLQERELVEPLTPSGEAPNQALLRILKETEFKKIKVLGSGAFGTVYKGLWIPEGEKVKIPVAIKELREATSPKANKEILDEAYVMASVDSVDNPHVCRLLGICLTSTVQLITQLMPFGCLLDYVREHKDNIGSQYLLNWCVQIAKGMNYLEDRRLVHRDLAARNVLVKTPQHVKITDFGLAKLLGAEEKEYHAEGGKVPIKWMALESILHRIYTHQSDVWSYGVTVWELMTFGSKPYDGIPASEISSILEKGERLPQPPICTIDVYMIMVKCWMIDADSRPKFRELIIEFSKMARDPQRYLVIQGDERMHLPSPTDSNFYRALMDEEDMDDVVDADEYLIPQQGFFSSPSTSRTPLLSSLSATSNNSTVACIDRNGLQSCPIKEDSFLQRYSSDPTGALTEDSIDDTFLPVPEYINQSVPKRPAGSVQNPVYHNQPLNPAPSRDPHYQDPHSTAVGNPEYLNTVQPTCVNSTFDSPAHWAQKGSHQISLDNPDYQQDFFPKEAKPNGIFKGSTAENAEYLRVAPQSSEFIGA
T1 sequence (P00533 25-1210): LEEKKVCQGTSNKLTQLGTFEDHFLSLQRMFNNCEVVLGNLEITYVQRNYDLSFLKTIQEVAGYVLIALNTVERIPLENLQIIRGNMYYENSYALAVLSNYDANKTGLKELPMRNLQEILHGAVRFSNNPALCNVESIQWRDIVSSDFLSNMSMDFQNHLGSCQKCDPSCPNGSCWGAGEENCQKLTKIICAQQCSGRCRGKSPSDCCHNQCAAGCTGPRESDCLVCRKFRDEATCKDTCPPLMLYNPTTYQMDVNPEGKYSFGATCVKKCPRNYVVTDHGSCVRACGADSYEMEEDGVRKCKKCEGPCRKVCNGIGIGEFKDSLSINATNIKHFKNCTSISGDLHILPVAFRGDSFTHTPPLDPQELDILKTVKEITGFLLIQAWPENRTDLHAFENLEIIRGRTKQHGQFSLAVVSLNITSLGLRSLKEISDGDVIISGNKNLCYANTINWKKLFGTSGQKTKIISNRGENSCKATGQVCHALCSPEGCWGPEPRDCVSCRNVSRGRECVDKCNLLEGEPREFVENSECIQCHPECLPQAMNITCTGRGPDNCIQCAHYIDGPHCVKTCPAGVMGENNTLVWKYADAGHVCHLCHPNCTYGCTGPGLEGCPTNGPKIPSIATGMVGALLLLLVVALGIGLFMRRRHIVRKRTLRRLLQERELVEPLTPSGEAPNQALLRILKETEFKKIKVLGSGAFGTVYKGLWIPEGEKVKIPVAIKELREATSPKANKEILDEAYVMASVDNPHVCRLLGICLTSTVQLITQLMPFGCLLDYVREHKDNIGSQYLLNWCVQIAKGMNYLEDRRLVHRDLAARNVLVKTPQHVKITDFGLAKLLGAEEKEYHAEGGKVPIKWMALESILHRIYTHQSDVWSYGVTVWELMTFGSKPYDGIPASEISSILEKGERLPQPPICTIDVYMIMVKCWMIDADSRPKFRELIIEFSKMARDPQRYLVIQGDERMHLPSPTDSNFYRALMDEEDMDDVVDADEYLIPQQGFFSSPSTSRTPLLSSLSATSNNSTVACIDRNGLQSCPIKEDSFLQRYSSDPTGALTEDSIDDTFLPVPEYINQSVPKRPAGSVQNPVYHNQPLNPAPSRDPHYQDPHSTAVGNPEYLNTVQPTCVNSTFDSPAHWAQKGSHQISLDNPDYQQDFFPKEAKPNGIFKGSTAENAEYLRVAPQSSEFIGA

Compound: CCc1cc(Nc2ncc(Br)c(Nc3ccc4nccnc4c3NS(C)(=O)=O)n2)c(OC)cc1N1CCC(N2CCN(CCc3cccc4c3n(CC)c(=O)n4C3CCC(=O)NC3=O)CC2)CC1 (stereo not shown) [Compound 11, N-(6-((5-bromo-2-((4-(4-(4-(2-(1-(2,6-dioxopiperidin-3-yl)-3-ethyl-2-oxo-2,3-dihydro-1H-benzo[d]imidazol-4-yl)ethyl)piperazin-1-yl)piperidin-1-yl)-5-ethyl-2-methoxyphenyl)amino)pyrimidin-4-yl)amino)quinoxalin-5-yl)methanesulfonamide]
- DC50 (A431 (EGFR_WT); Table 5, 24 h, read-out: DC50 (nM), 24 h, A431): > 1000 nM
- DC50 (A431 (EGFR_WT); compounds 24 h, western blot, read-out: A431 DC50): > 1000 nM
- DC50 ([1]; compounds 24 h, western blot, read-out: BaF3_ASV DC50): 22.4 nM
- Potency in degrading EGFR exon20 insertion mutant form compared with Compound A (BaF3_ASV) [1, 3]: significantly increased potency
- DC50 ([1]; Table 5, 24 h, read-out: DC50 (nM), 24 h, BaF3_ASV): 22.4 nM
- Potency in degrading EGFR exon20 insertion mutant form compared with Compound A (BaF3_SVD) ([2]; BaF3_SVD, comparison with Compound A, in words): significantly increased potency
- DC50 ([2]; Table 5, BaF3_SVD cells, 24 h): 21.6 nM
- GI50 (BaF3_ASV; 72 h, Table 6, three days, CellTiter-Glo, read-out: BaF3_ASV GI50): 75.2 nM
- Potency in cell growth inhibition compared with Compound A (BaF3_ASV) (BaF3_ASV; [3]): significantly increased potency
- GI50 (BaF3_ASV; Table 7, head prints 24 h, read-out: GI50 (nM), 24 h, BaF3_ASV): 75.2 nM
